As a reminder, the IC50 is the concentration needed to halve the response being measured. In general, GI50 refers to the concentration giving 50% growth inhibition.

The values that follow come from ChEMBL document CHEMBL5512632, “Unlocking the potential of 1,4-naphthoquinones: A comprehensive review of their anticancer properties” (Eur J Med Chem, 2024).

Test [1] relates to SK-MEL-28. The test can be described thus: Cytotoxicity against human SK-MEL-28 cells incubated for 48 hrs by MTT assay. Type of test: functional, cell-based. The settings on record: SK-MEL-28, 48 h.
The subject of test [2] is HEC-1-A. Put plainly: Cytotoxicity against human HEC-1-A cells incubated for 48 hrs by MTT assay. It counts as functional, cell-based. A general note: Tetrazolium assays rely on reduction of a dye to a coloured formazan, in cell work by metabolically active cells.
The test system of test [3] is Calu-1. Put plainly: Cytotoxicity against human Calu-1 cells incubated for 48 hrs by MTT assay. It counts as functional, cell-based. The settings on record: Calu-1, 48 h.
The subject of test [4] is MOLT-3. Put plainly: Cytotoxicity against human MOLT-3 cells incubated for 48 hrs by XTT assay. The settings on record: MOLT-3, 48 h. Type of test: functional, cell-based.
Test [5] has as its system MDA-MB-231. The test can be described thus: Cytotoxicity against human MDA-MB-231 cells incubated for 48 hrs by XTT assay. Type of test: functional, cell-based. Particulars: MDA-MB-231, 48 h.
Test [6] concerns TK-10. The test can be described thus: Growth inhibition of human TK-10 cells by Sulforhodamine B assay. It counts as functional. Background: The SRB assay estimates cell density from bound dye.
Test [7] has as its system UACC-62. The test can be described thus: Growth inhibition of human UACC-62 cells by Sulforhodamine B assay. Type of test: functional.
Test [8] relates to MCF7. The test can be described thus: Growth inhibition of human MCF7 cells by Sulforhodamine B assay. Type of test: functional.
Test [9] deals with PC-3. Put plainly: Growth inhibition of human PC-3 cells by Sulforhodamine B assay. Type of test: functional.
The subject of test [10] is HT-29. The test can be described thus: Antiproliferative activity against human HT-29 cells assessed as reduction in cell viability incubated for 24 hrs by MTT assay. It counts as functional, cell-based. Particulars: HT-29, 24 h.
Test [11] has as its system A549. Put plainly: Antiproliferative activity against human A549 cells assessed as inhibition of cell growth incubated for 24 hrs by trypan blue exclusion assay. Type of test: functional, cell-based. Particulars: A549, 24 h.
The test system of test [12] is HepG2. The test can be described thus: Antiproliferative activity against human HepG2 cells assessed as inhibition of cell growth incubated for 24 hrs by MTT assay. The settings on record: HepG2, 24 h. Type of test: functional, cell-based.
The subject of test [13] is Hep 3B2. The test can be described thus: Antiproliferative activity against human Hep3B cells assessed as inhibition of cell growth incubated for 24 hrs by MTT assay. It counts as functional, cell-based.
The test system of test [14] is Huh-7. The test can be described thus: Antiproliferative activity against human Huh-7 cells assessed as inhibition of cell growth incubated for 24 hrs by MTT assay. Type of test: functional, cell-based. The settings on record: Huh-7, 24 h.
Test [15] has as its system IMR-32. Put plainly: Antiproliferative activity against human IMR-32 cells assessed as inhibition of cell growth incubated for 48 hrs by MTT assay. It counts as functional, cell-based. The settings on record: IMR-32, 48 h.
Test [16] in a line: Antiproliferative activity against human LA-N-1 cells assessed as inhibition of cell growth incubated for 48 hrs by MTT assay. Type of test: functional, cell-based. The settings on record: LAN1, 48 h.
Test [17] is described as follows: Antiproliferative activity against human NB-39-nu cells assessed as inhibition of cell growth incubated for 48 hrs by MTT assay. Type of test: functional, cell-based.
In test [18] the test system is SK-N-SH. The test can be described thus: Antiproliferative activity against human SK-N-SH cells assessed as inhibition of cell growth incubated for 48 hrs by MTT assay. It counts as functional, cell-based.
Test [19] concerns NCI-H460. Put plainly: Antiproliferative activity against human NCI-H460 cells assessed as inhibition of cell growth incubated for 24 hrs by MTT assay. It counts as functional, cell-based. The settings on record: NCI-H460, 24 h.
Test [20] deals with MDA-MB-231. The test can be described thus: Antiproliferative activity against human MDA-MB-231 cells assessed as inhibition of cell growth incubated for 24 hrs by MTT assay. Type of test: functional, cell-based. The settings on record: MDA-MB-231, 24 h.
For test [21], the system named is A2780. Put plainly: Antiproliferative activity against human A2780 cells assessed as inhibition of cell growth incubated for 24 hrs by MTT assay. It counts as functional, cell-based. Particulars: A2780, 24 h.
The test system of test [22] is A549. Put plainly: Cytotoxicity against human A549 cells assessed as inhibition of cell growth incubated for 48 hrs by MTT assay. It counts as functional, cell-based. The settings on record: A549, 48 h.
Test [23] relates to DU-145. The test can be described thus: Cytotoxicity against human DU-145 cells assessed as inhibition of cell growth incubated for 48 hrs by MTT assay. It counts as functional, cell-based. Particulars: DU-145, 48 h.
Test [24] deals with HeLa. Put plainly: Cytotoxicity against human HeLa cells assessed as inhibition of cell growth incubated for 48 hrs by MTT assay. Type of test: functional, cell-based.
Test [25] relates to MCF7. Put plainly: Cytotoxicity against human MCF7 cells assessed as inhibition of cell growth incubated for 48 hrs by MTT assay. The settings on record: MCF7, 48 h. It counts as functional, cell-based.
Test [26] relates to B16. Put plainly: Cytotoxicity against mouse B16 cells assessed as inhibition of cell growth incubated for 48 hrs by MTT assay. Type of test: functional, cell-based. Particulars: B16, 48 h.
The test system of test [27] is DU-145. Put plainly: Antiproliferative activity against human DU-145 cells assessed as inhibition of cell growth incubated for 24 hrs by celltiter blue reagent based fluorimetric analysis. Type of test: functional. The settings on record: DU-145, 24 h. On the technique in general: Alamar Blue is a resazurin reagent that responds to reducing activity.
Test [28] deals with RD. Put plainly: Antiproliferative activity against human RD cells assessed as inhibition of cell growth incubated for 24 hrs by celltiter blue reagent based fluorimetric analysis. Type of test: functional.
Test [29] deals with A549. Put plainly: Antiproliferative activity against human A549 cells assessed as inhibition of cell growth incubated for 24 hrs by celltiter blue reagent based fluorimetric analysis. It counts as functional. The settings on record: A549, 24 h.
For test [30], the system named is HeLa. The test can be described thus: Antiproliferative activity against human HeLa cells assessed as inhibition of cell growth incubated for 24 hrs by sulforhodamine B assay. It counts as functional, cell-based.

With `O=C1C(Cl)=C(NCCN2CCOCC2)C(=O)c2ccccc21`, the IC50 in [1] turned out to be 10.3 µM; in [2], 14.5 µM; in test [3], 4.39 µM.

Regarding `Cc1ccc(NC2=C(Cl)C(=O)c3ccccc3C2=O)cc1`, the IC50 in test [4] stood at 4.3 µM; in test [5], 10.7 µM.

As to `O=C1C(Sc2ccc3ccccc3c2)=C(Sc2ccc3ccccc3c2)C(=O)c2ccccc21`, the GI50 amounted to 8.26 µM in test [6], 9.92 µM in test [7], 7.75 µM in [8] and 7.21 µM in test [9].

Take `CCOC(=O)c1cn(C2=CC(=O)c3ccccc3C2=O)nn1`: the IC50 in [10] is 3.2 µM.

Turning to `CCCC[S+]([O-])C1=CC(=O)c2ccccc2C1=O` (stereo not given), in test [11], the IC50 was 2080 nM.

For `CCCCCCCC[S+]([O-])C1=CC(=O)c2ccccc2C1=O` (stereo not given), the IC50 came to 8.56 µM in test [12], 960 nM in test [13] and 1960 nM in test [14].

Regarding `COCCSC1=C(C)C(=O)c2ccccc2C1=O`, the IC50 in test [15] worked out at 2430 nM; in [16], 1550 nM; in test [17], 10.7 µM; in [18], 3.45 µM.

Consider `O=C1C=C(SCCO)C(=O)c2ccccc21`, for which the IC50 stood at 4.24 µM in test [19], 16 µM in test [20] and 3.69 µM in [21].

Consider `CCc1ccc(-c2cn(CCNC3=C(C)C(=O)c4ccccc4C3=O)nn2)cc1`, for which the IC50 in test [22] came to 9.19 µM; in test [23] it was 8.02 µM; in test [24], 26.2 µM; in test [25], 8.73 µM; in [26] it was 20.2 µM.

`O=C1C=C(CCCCCCCCCC[P+](c2ccccc2)(c2ccccc2)c2ccccc2)C(=O)c2ccccc21`: the IC50 is 400 nM in [27], 20 nM in test [28] and 500 nM in test [29].

Take `O=C1C(Cl)=C(Nc2ccc(O)cc2)C(=O)c2ccccc21`: in test [30], the IC50 amounted to 3.2 µM.
